Series [1] is described as follows: Physicochemical properties (solubility, pKa, LogP, BCS class). The settings on record: from high permeability and low solubility.
Series [2] in a line: Clinical PK of single and repeated oral doses of tegoprazan in healthy adult males (literature). In kind it is in vivo, human. The settings on record: 100 mg once daily; from values of ref 15.
Details of series [3]: method as in earlier work. The settings on record: cited from earlier work.
Series [4] relates to CYP3A4. Also on record: method as in ref 17, 18 = [17]; 17. Tegoprazan (K-CAB) Available online: https://pdfslide.net/reader/f/tegoprazan-k-cab-2019-02-08-tegoprazan-metabolic-pathway-75-by-cyp3a4 (accessed on 10 December 2020) || [18]; PMID 34575565; doi:10.3390/pharmaceutics13091489; 18. Yoon D.Y. Lee S. Jang I.-J. Kim M. Lee H. Kim S. Kim B. Song G.S. Rhee S.-J. Prediction of Drug–Drug Interaction Potential of Tegoprazan Using Physiologically Based Pharmacokinetic Modeling and Si. The settings on record: cited from earlier work.

Details of series [5]: method as in PMID 33131095. The settings on record: 100 mg repeatedly; 10 healthy Chinese subjects; cited from earlier work.
In series [6] the test system is CYP3A4. Also on record: method as in ref 18 = [18]; PMID 34575565; doi:10.3390/pharmaceutics13091489; 18. Yoon D.Y. Lee S. Jang I.-J. Kim M. Lee H. Kim S. Kim B. Song G.S. Rhee S.-J. Prediction of Drug–Drug Interaction Potential of Tegoprazan Using Physiologically Based Pharmacokinetic Modeling and Si. The settings on record: cited from earlier work.
Series [7] is described as follows: Microsomal metabolic stability in human liver microsomes. The format is in vitro ADME. How it is done: The NADPH-generating system, glucose 6-phosphate (3.3 mM), 0.1 M potassium phosphate (pH 7.4), and human liver microsomes (HLMs; 0.5 mg/mL) were combined and incubated at 37 °C for 5 min. The organic content in the reaction mixture was 0.01% DMSO and less than 1% acetonitrile. Then, 1 μM tegoprazan and M1 were added to the reaction tube (total volume: 160 μL) and incubated at 37 °C for 0, 5, 15, 30, and 60 min. To terminate the reaction, 320 μL of acetonitrile containing an internal standard (100 ng/mL carbamazepine) was added to each sample. All experiments were performed in triplicate. The samples were vortexed for 5 min and centrifuged at 3000 rpm at 4 °C for 10 min. The concentrations of tegoprazan and M1 were determined by liquid chromatography–tandem mass spectrometry (LC–MS/MS). The concentrations of tegoprazan and M1 at 0 min were used to assess metabolism by HLMs based on changes in drug concentration over time. The terminal slope of linear regression was used to calculate the intrinsic clearance (CLint) of tegoprazan and M1. For the in vitro HLM system, CLint was calculated using Equation (1). CLint,mic (μL/min/mg protein) = k × Vincubation/Cincubation(1) where Vincubation is the incubation volume and Cincubation is the concentration of the microsomal protein.
On the technique in general: Liver microsomes are vesicles of endoplasmic reticulum, rich in cytochrome P450 enzymes.

In a further series the target is T1, CYP2C9 (Homo sapiens, UniProt P11712).
T1 construct: purchased Corning Life Sciences (Woburn, MA, USA)
T1 sequence (P11712 whole entry): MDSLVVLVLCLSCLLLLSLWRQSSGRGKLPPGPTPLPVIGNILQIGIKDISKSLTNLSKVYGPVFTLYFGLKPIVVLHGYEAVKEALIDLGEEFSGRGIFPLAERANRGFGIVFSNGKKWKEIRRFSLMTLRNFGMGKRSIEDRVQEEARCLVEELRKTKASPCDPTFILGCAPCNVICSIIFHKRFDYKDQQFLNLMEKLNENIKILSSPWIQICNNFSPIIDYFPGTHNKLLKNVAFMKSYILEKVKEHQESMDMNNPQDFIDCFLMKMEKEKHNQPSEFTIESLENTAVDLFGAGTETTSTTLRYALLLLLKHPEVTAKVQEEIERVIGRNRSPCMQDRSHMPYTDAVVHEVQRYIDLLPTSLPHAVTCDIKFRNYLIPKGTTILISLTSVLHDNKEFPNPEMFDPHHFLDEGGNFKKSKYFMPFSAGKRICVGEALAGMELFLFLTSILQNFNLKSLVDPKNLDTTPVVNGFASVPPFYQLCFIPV
In words: Intrinsic clearance using recombinant CYPs: CYP2C9. The format is in vitro ADME. How it is done: The elimination profiles of tegoprazan and M1 were assessed using rCYPs. All the assay procedures were performed according to the manufacturer’s instructions. Master mix (1.399 mL), containing the NADPH-generating system, 3.3 mM of glucose 6-phosphate, PBS buffer, deionized water, and each rCYP (25 pmol/μL of CYP2C8, 2C19, and 2E1 and 50 pmol/μL of CYP3A4, 2C9, and 2D6), was added to a microtube and pre-incubated at 37 °C for 5 min. Next, 1 μM tegoprazan and M1 were added and incubated at 37 °C for 0, 5, 10, 20, 30, 45, and 60 min. A total of 100 μL of the sample, incubated for predefined duration, was transferred to a fresh e-tube. Next, 200 μL of acetonitrile containing tegoprazan-d6 (0.5 μM) was added, vortexed for 5 min, and centrifuged at 16,200× g and 4 °C for 10 min. The concentrations of the remaining tegoprazan and M1 were determined by LC–MS/MS. All experiments were performed in duplicate. CLint,rCYP levels were assessed using the results of the disappearance test. […] The CLint resulting from rCYPs was calculated using Equation (3):(3) CLint,rCYP(μL/min/pmol CYP)=0.693/t1/2×1400/concentration of CYP
Caco-2 and rCYP samples were quantified using LC-MS/MS (UPLC® I-class coupled with TQ-MS (Waters, Milford, MA, USA). The mobile phase comprised (a) 0.1% formic acid and (b) acetonitrile containing 0.1% formic acid. Gradient elution at a flow rate of 0.3 mL/min was applied. Tegoprazan, M1, and the internal standard (tegoprazan-d6) were optimized in electrospray ionization positive mode. Acetonitrile with 0.1 μM of tegoprazan-d6 was added to the collected Caco-2 or rCYP samples. Then, processed samples were centrifuged at 13,000× g for 20 min. After centrifugation, 100 μL of supernatant was transferred to an LC-MS vial and analyzed using LC-MS/MS. […] The stability of tegoprazan was evaluated, and it satisfied the acceptance criteria (coefficient of variances was within 15%) under variable conditions including reinjection, processed sample stability (PSS), and short-term stability for the stock and sample.

Results on 1 molecule are retold here after PMC9230797, “Integration of a Physiologically Based Pharmacokinetic and Pharmacodynamic Model for Tegoprazan and Its Metabolite: Application for Predicting Food Effect and Intragastric pH Alterations” (Pharmaceutics, 2022).

“And” between values parts separate entries of the source, which are not always exact repeats. Equal entries are not always repeated.

Consider `Cc1nc2cc(C(=O)N(C)C)cc(O[C@H]3CCOc4cc(F)cc(F)c43)c2[nH]1` [tegoprazan], for which the “biopharmaceutics classification system (BCS) class” value in series [1] is “class II”. Also, in series [2], the “decrease of observed Cmax at Day 7 compared with Day 1” value was “approximately 40.2%”. Also, in series [3], the “CLR (renal clearance)” value is reported as 1.1 L/h. Moreover, the “fu (unbound fraction)” value in series [3] (plasma) is reported as 0.087. For the same molecule, the “metabolic fraction by CYP3A4 of total hepatic clearance” value in the series on CYP3A4 [4] is “approximately 75%”. For the same molecule, in series [5], the “AUC and CL on Day 7 compared with Day 1” value was “did not show a significant difference”; the “Vd/F on Day 7 compared with Day 1” value is “increased significantly”. Moreover, the “predicted systemic exposure change” value with CYP3A4 [6] (co-administered with the maximum recommended dose of clarithromycin or ketoconazole vs without CYP3A4 modulator) is “increased by approximately three-fold”. Also, the “predicted decrease of systemic exposure” value with CYP3A4 [6] (with the CYP3A4 inducer rifampicin) is on record as “up to 30%”. Moreover, in series [7] (1 μM, HLM 0.5 mg/mL with NADPH, experimental data), the “HLM intrinsic clearance (CLint,HLM)” value worked out at 15.96 μL/min/mg protein. Further, the “percentage remaining after incubation” value in series [7] (control sample without NADPH) is 99.54% ± 5.32. In addition, the microsomal CLint at 1 μM in series [7] (human, human liver microsomes, pH 7.4, 1 μM, HLM 0.5 mg/mL with NADPH, experimental data, read-out: HLM intrinsic clearance (CLint,HLM)) amounted to 16 µL/min/mg. For the same molecule, the “CLint, CYP2C9” value at CYP2C9 (1 μM, experimental data) was 0.14 µL/min/pmol and 0.140 µL/min/pmol. The half-life (as a rule, the time needed for the level to fall by half in the phase considered) at 1 μM on CYP2C9 (human, recombinant CYP2C9, rCYP2C9) turned out to be 2.27 h. Also, the “Slope (disappearance)” value on CYP2C9 (rCYP2C9, 1 μM) is recorded as -0.005.
